Earlier results, collected in patent US12167995B2, “[((1R,2S,5R)-2-isopropyl-5-methyl-cyclohexanecarbonyl)-amino]-acetic acid isopropyl ester for treatment of chronic cough” (AXALBION SA, priority 2019, dated 2024).
“Also recorded” adds a separate entry of the source. Where two headings read alike, the source gives them in different places.

Experiments:
[1] = system: refractory chronic cough (RCC); details: cited from earlier work
[2] = system: acute cough induced by capsaicin; details: MK-7264: in RCC patients or in healthy subjects; cited from earlier work
[3] = system: isolated guinea pig vagal nerves; details: Maher et al., 2014; cited from earlier work

SMILES: COc1cc(C(C)C)c(Oc2cnc(N)nc2N)cc1S(N)(=O)=O [MK-7264]
- patients with adverse events related to taste (dysgeusia, hypogeusia, or ageusia) ([1]; 50 mg per day): 81%
- patients with adverse events related to taste (dysgeusia, hypogeusia, or ageusia) ([1]; 1200 mg per day): 100%
- effect on VAS scores in RCC patients ([1]; human, in vivo): poorly effective in improving the VAS scores
- effect on cough frequency in RCC patients ([1]; human, in vivo): efficient in reducing cough frequency; also recorded: efficient in decreasing cough frequency in RCC patients
- effect on acute cough induced by capsaicin [2]: not effective for acute cough induced by the tussive stimulus capsaicin

SMILES: O=C(Nc1ccccc1Br)N[C@@H]1CCN(c2ccc(C(F)(F)F)cn2)C1 [SB-705498]
- effect on cough frequency in RCC patients ([1]; human, in vivo): do not reduce cough frequency in RCC patients
- effect on acute cough induced by capsaicin [2]: inhibit acute cough induced by capsaicin

SMILES: CC(C)[C@@H]1CC[C@@H](C)C[C@H]1O [menthol, (1R,2S,5R)-2-isopropyl-5-methyl-cyclohexanol]
- TRPM8 dependence of inhibition of capsaicin-induced response [3]: in a TRPM8-independent way
